# In patent publication US20180333491A1 (Sinotau Pharmaceuticals Group, priority 2015, published 2018):
# Marks after values point to notes of the source that are not given here.
# Experiments:
# COLO205 = experiment: Cytotoxicity on human tumor cell lines (ATPLite); type: cell-based
# Protocol: (§1) Eighteen human tumor cell lines were treated with 62.5, 125, 250, 500, or 1000 ng/mL HuCTB006 or different concentrations of chemotherapy drugs, which act as positive controls. […] The culture medium for SK-Hep-1, HepG2, HCT116, SW480, WiDr (1×NEAA), MIA-PaCa-2 (2.5% Horse serum) MDA-MB-231 (1 mM NaPyr, 1×MEM-NEAA, 1×MEM VITAMIN) was DMEM. The culture medium for COLO205, BXPC3 (2 mM glutamin, 10 mM HEPES), Panc2.03 (15FBS, 1 mM NaPyr, 1×MEM-NEAA, […], 10 mM HEPES), H2122, OVCAR3 (1 mM NaPyr, 10 ug/ml human insulin, 10 mM HEPES, 2.5 g/L glucose), Molt-4 (HEPES, 2.5 g/l glocose), Jurkat (HEPES, 2.5 g/l glocose) was RPMI-1640, the culture medium for SK-MES-1 was Eagle's MEM, the culture medium for 2-LMP and DY36T2 was IMEM, and the culture medium for SUM102 (5 ug/ml insulin) was F-12K. The cell viability was determined by ATPLite Assay Kit. If the IC50 value was lower than 62.5 ng/mL, the cells were treated with higher concentration of CTB006 in the second round of experiments to determine IC50 value.
# BXPC3 = experiment: Cytotoxicity on human tumor cell lines (ATPLite); type: cell-based
# Protocol: as §1
# MDA-MB-231 = experiment: Cytotoxicity on human tumor cell lines (ATPLite); type: cell-based
# Protocol: as §1
# Jurkat = experiment: Cytotoxicity on human tumor cell lines (ATPLite); type: cell-based
# Protocol: as §1
# [1] = tested on: human lung cancer tumor cells H2122; experiment: H2122 subcutaneous model; details: for Tumor Volume (cm^3) Mean ± SEM: Day 38 after treatment; for Tumor weight (g) Mean ± SEM: end of experiment
# Protocol: (§7) The bodyweight and major/minor axis of the mice were measured twice a week, and the tumor volumes were calculated using the formula: Tumor volume=1/2×major axis×minor axis. […] “T” represents average tumor volume of the experimental group (cm^3), and “C” represents average tumor volume of the control group (cm^3). The animals were monitored at all times. The bodyweight and major/minor axis or mice were measured twice a week. When the experiments were concluded, mice were sacrificed and tumors were extracted and weighted.
# (§8) Tumor volumes were represented with average ±standard error. Data analysis was done using Spss16.0, One-Way ANOVA, LSD (homogeneity of variance) or Dunnett T3 (non-homogeneity of variance). […] P<0.05 represents significant difference.
# [2] = tested on: human colon cancer tumor cells Colo205; experiment: Colo205 subcutaneous model; type: in vivo, nude mice; details: for Tumor Volume (cm^3) Mean ± SEM / TGI (Calculated using tumor volume): Day 28 after treatment; for Time of tumor volume changed significantly: days after first treatment; for Tumor weight (g) Mean ± SEM / TGI (Calculated using tumor weight): end of experiment
# Protocol: (§2) Tumor cells (i.e., MIA-PaCa-2, WiDr, H2122, colo205) were inoculated in nude mice's flank at 5×10^6 cells per mouse. The mice were grouped when the average volume of tumors reached about 100˜200 mm^3. “QW”=weekly dose. “Q3d”=dosed every third day. “BiW”=biweekly.
# (§3) The bodyweight and major/minor axis of the mice were measured twice a week, and the tumor volumes were calculated using the formula: Tumor volume=1/2×major axis[…]. […] “T” represents average tumor volume of the experimental group (cm^3), and “C” represents average tumor volume of the control group (cm^3). The animals were monitored at all times. The bodyweight and major/minor axis or mice were measured twice a week.
# (§4) Tumor volumes were represented with average ±standard error. […] P<0.05 represents significant difference.
# [3] = molecular target: T1, DcR1 (recombinant human TRAIL R3/TNFRSF10C) (Homo sapiens, UniProt O14798); experiment: CLEIA binding specificity; details: DcR1-His coated; antibody 200, 40 and 8 ng/mL
# T1 construct: His; purchased Novoprotein Science Lot: 0328670
# T1 sequence (O14798 26-236): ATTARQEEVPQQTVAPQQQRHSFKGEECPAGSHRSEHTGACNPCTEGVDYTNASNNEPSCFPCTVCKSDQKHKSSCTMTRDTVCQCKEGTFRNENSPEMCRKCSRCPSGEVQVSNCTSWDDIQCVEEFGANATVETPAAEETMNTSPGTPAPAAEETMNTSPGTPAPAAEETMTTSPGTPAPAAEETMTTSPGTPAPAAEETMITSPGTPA
# Protocol: (§5) The binding specificity of HuCTB006 was evaluated by chemiluminescent enzyme immunoassay (CLEIA).
# (§6) HuCTB006 was diluted into 200, 40 and 8 ng/mL and then added to the wells. After 1 hour incubation in 37° C., the plate was washed. The binding of HuCTB006 with immobilized antigens was detected with HRP labeled secondary antibody and a substrate solution.
# DR4 = molecular target: T2, DR4 (Homo sapiens, UniProt O00220); experiment: CLEIA binding specificity; details: DR4-His-EC coated; antibody 200, 40 and 8 ng/mL
# T2 construct: His; Lot: 090222-P; host or cells: E. coli
# Protocol: as §5, §6
# [4] = tested on: human pancreatic cancer tumor cells MIA-PaCa-2; experiment: MIA-PaCa-2 subcutaneous model; details: for Tumor Volume (cm^3) Mean ± SEM: 34 days of treatment; for Time of tumor volume changed significantly: days after first treatment; for Tumor weight (g) Mean ± SEM: end of experiment
# Protocol: as §7, §8
# [5] = tested on: human colon cancer tumor cells Widr; experiment: WiDr subcutaneous model; type: in vivo, nude mice; details: for Tumor Volume (cm^3) Mean ± SEM / TGI (Calculated using tumor volume): Day 27 after treatment; for TGI (Calculated using tumor volume): listed as HuTB006; for Tumor weight (g) Mean ± SEM: end of experiment
# Protocol: as §2, §3, §4
# [6] = HuCTB006 0.6 mg/kg i.v., 0.6 mg/kg
# [7] = HuCTB006 1.8 mg/kg i.v., 1.8 mg/kg
# [8] = HuCTB006 5.4 mg/kg i.v., 5.4 mg/kg
substance,measurement,setting,value
"HuCTB006: Monospecific humanized chimeric monoclonal antibody directed to TRAIL-R2 receptor; heavy chain SEQ ID NO: 16, light chain SEQ ID NO: 14",IC50,COLO205,~0.01 µg/mL
same,IC50,BXPC3,~0.01 µg/mL
same,IC50,MDA-MB-231,~0.01 µg/mL
same,IC50,Jurkat,~0.01 µg/mL
same,Tumor Volume (cm^3) Mean ± SEM,[1]; HuCTB006 0.2 mg/kg i.v.,1.85 ± 0.15 cm^3
same,Tumor weight (g) Mean ± SEM,[1]; HuCTB006 0.2 mg/kg i.v.,1.54 ± 0.09 g
same,Tumor Volume (cm^3) Mean ± SEM,[1]; HuCTB006 0.6 mg/kg i.v.,1.02 ± 0.31 cm^3
same,Tumor weight (g) Mean ± SEM,[1]; HuCTB006 0.6 mg/kg i.v.,0.89 ± 0.29 g
same,Tumor Volume (cm^3) Mean ± SEM,[1]; HuCTB006 1.8 mg/kg i.v.,0.16 ± 0.16 cm^3
same,Tumor weight (g) Mean ± SEM,[1]; HuCTB006 1.8 mg/kg i.v.,0.12 ± 0.12 g
same,Tumor Volume (cm^3) Mean ± SEM,[1]; HuCTB006 5.4 mg/kg i.v.,0.18 ± 0.18 cm^3
same,Tumor weight (g) Mean ± SEM,[1]; HuCTB006 5.4 mg/kg i.v.,0.19 ± 0.18 g
same,Tumor Volume (cm^3) Mean ± SEM,[2]; HuCTB006 0.2 mg/kg i.v.,1.24 ± 0.20 cm^3
same,Time of tumor volume changed significantly,[2]; HuCTB006 0.2 mg/kg i.v.,10 days
same,Tumor weight (g) Mean ± SEM,[2]; HuCTB006 0.2 mg/kg i.v.,0.84 ± 0.14 g
same,TGI (Calculated using tumor volume),[2]; HuCTB006 0.6 mg/kg i.v.,84.78%
same,Tumor Volume (cm^3) Mean ± SEM,[2]; HuCTB006 0.6 mg/kg i.v.,0.29 ± 0.13 cm^3
same,TGI (Calculated using tumor volume),[2]; [6],84.78%*
same,TGI (Calculated using tumor weight),[2]; HuCTB006 0.6 mg/kg i.v.,84.07%
same,Tumor weight (g) Mean ± SEM,[2]; HuCTB006 0.6 mg/kg i.v.,0.20 ± 0.10 g
same,TGI (Calculated using tumor weight),[2]; [6],84.07%*
same,TGI (Calculated using tumor volume),[2]; HuCTB006 1.8 mg/kg i.v.,80.07%
same,Tumor Volume (cm^3) Mean ± SEM,[2]; HuCTB006 1.8 mg/kg i.v.,0.38 ± 0.16 cm^3
same,TGI (Calculated using tumor volume),[2]; [7],80.07%*
same,TGI (Calculated using tumor weight),[2]; HuCTB006 1.8 mg/kg i.v.,81.78%
same,Tumor weight (g) Mean ± SEM,[2]; HuCTB006 1.8 mg/kg i.v.,0.23 ± 0.12 g
same,TGI (Calculated using tumor weight),[2]; [7],81.78%*
same,TGI (Calculated using tumor volume),[2]; HuCTB006 5.4 mg/kg i.v.,85.24%
same,Tumor Volume (cm^3) Mean ± SEM,[2]; HuCTB006 5.4 mg/kg i.v.,0.28 ± 0.10 cm^3
same,TGI (Calculated using tumor volume),[2]; [8],85.24%*
same,Time of tumor volume changed significantly,[2]; HuCTB006 5.4 mg/kg i.v.,7~10^2 days
same,TGI (Calculated using tumor weight),[2]; HuCTB006 5.4 mg/kg i.v.,88.15%
same,Tumor weight (g) Mean ± SEM,[2]; HuCTB006 5.4 mg/kg i.v.,0.15 ± 0.07 g
same,TGI (Calculated using tumor weight),[2]; [8],88.15%*
same,cross-reaction with coated antigen (CLEIA),[3],no cross-reaction
same,cross-reaction with coated antigen (CLEIA),DR4,no cross-reaction
same,Tumor Volume (cm^3) Mean ± SEM,[4]; HuCTB006 0.2 mg/kg i.v.,1.76 ± 0.15 cm^3
same,Time of tumor volume changed significantly,[4]; HuCTB006 0.2 mg/kg i.v.,13 days
same,Tumor weight (g) Mean ± SEM,[4]; HuCTB006 0.2 mg/kg i.v.,0.79 ± 0.07 g
same,Tumor Volume (cm^3) Mean ± SEM,[4]; HuCTB006 0.6 mg/kg i.v.,1.27 ± 0.43 cm^3
same,Tumor weight (g) Mean ± SEM,[4]; HuCTB006 0.6 mg/kg i.v.,0.54 ± 0.21 g
same,Tumor Volume (cm^3) Mean ± SEM,[4]; HuCTB006 1 mg/kg i.v.,0.88 ± 0.35 cm^3
same,Tumor weight (g) Mean ± SEM,[4]; HuCTB006 1 mg/kg i.v.,0.37 ± 0.19 g
same,Tumor Volume (cm^3) Mean ± SEM,[4]; HuCTB006 10 mg/kg i.v.,0.76 ± 0.22 cm^3
same,Time of tumor volume changed significantly,[4]; HuCTB006 10 mg/kg i.v.,7^2 days
same,Tumor weight (g) Mean ± SEM,[4]; HuCTB006 10 mg/kg i.v.,0.19 ± 0.08 g
same,bodyweights,"[4]; MIA-PaCa-2 model, over the treatment time",slow increase
same,Tumor Volume (cm^3) Mean ± SEM,[5]; HuCTB006 0.07 mg/kg i.v.,1.76 ± 0.18 cm^3
same,TGI (Calculated using tumor volume),[5]; HuCTB006 0.07 mg/kg i.v.,6.61%^1
same,Tumor weight (g) Mean ± SEM,[5]; HuCTB006 0.07 mg/kg i.v.,1.29 ± 0.18 g
same,Tumor Volume (cm^3) Mean ± SEM,[5]; HuCTB006 0.22 mg/kg i.v.,1.54 ± 0.18 cm^3
same,TGI (Calculated using tumor volume),[5]; HuCTB006 0.22 mg/kg i.v.,18.71%^ac
same,Tumor weight (g) Mean ± SEM,[5]; HuCTB006 0.22 mg/kg i.v.,1.16 ± 0.13 g
same,Tumor Volume (cm^3) Mean ± SEM,[5]; HuCTB006 0.67 mg/kg i.v.,0.96 ± 0.10 cm^3
same,Tumor weight (g) Mean ± SEM,[5]; HuCTB006 0.67 mg/kg i.v.,0.68 ± 0.08 g
same,Tumor Volume (cm^3) Mean ± SEM,[5]; HuCTB006 2 mg/kg i.v.,0.80 ± 0.11 cm^3
same,Tumor weight (g) Mean ± SEM,[5]; HuCTB006 2 mg/kg i.v.,0.53 ± 0.08 g
